Results as given in patent US7572606B1 (Nereus Pharmaceuticals, Inc., priority 2005, dated 2009).
Values joined by “and” are separate entries in the source; they are usually repeats but may differ in a detail not shown here. Equal values may be shown once. Read-outs that look alike come from different tables or passages of the source.

Experiments:
[1] = test system: B16-F10; experiment: Cell growth inhibition, resazurin, 48 h; type: cell-based, mouse; conditions: B16-F10, 48 h drug exposure
Method: (§1) RPMI 8226 (CCL-155), HT-29 (HTB-38), and B16-F10 (CRL-6475) cells were purchased from ATCC. RPMI 8226 cells were maintained in RPMI 1640 media supplemented with 10% (v/v) FBS, 2 mM L-glutamine, 1 mM sodium pyruvate and Penicillin/Streptomycin at 100 IU/ml and 100 μg/ml, respectively. HT-29 cells were maintained in McCoys 5A supplemented with 10% (v/v) FBS, 2 mM L-glutamine, 1 mM sodium pyruvate, 1% (v/v) non-essential amino acids, 10 mM HEPES and Penicillin/Streptomycin at 100 IU/ml and 100 μg/ml, respectively. B16-F10 cells were maintained in DMEM supplemented with 10% (v/v) FBS, 2 mM L-glutamine, 10 mM HEPES and Penicillin/Streptomycin at 100 IU/ml and 100 μg/ml, respectively.
(§2) RPMI 8226 cells were seeded at 2×10^4 cells/well in 90 μl RPMI media containing 10% (v/v) FBS or 1% (v/v) FBS into 96 well black-walled, clear-bottom tissue culture plates. […] Formulae II-16, II-17 and Formula II-18 were serially diluted in media containing 1% or 10% FBS and added in triplicate to the test wells. […] The final concentration of Formula II-18 ranged from 2 μM to 630 pM.

[2] = test system: PC-3; experiment: Cell growth inhibition, resazurin, 48 h; conditions: Homo sapiens, PC-3, 48 h, PC-3, 48 h drug exposure
[3] = test system: OVCAR-3; experiment: Cell growth inhibition, resazurin, 48 h; type: cell-based, human; conditions: OVCAR-3, 48 h drug exposure
[4] = test system: HT-29; experiment: Cell growth inhibition, resazurin, 48 h; type: cell-based, human; conditions: HT-29, 48 h drug exposure
Method: as §1, §2

[5] = test system: NF-κB-mediated luciferase activity in HEK293 NF-κB/Luc cells; experiment: NF-κB-mediated luciferase reporter gene assay; type: cell-based, human; conditions: for EC50: 6 h TNF-α stimulation; for luciferase activity upon TNF-α stimulation: pretreatment of NF-κB/Luc 293 cells
Method: The HEK293 NF-κB/luciferase reporter cell line is a derivative of the human embryonic kidney cell line (ATCC; CRL-1573) and carries a luciferase reporter gene under the regulation of 5×NF-κB binding sites. […] When performing the luciferase assay, the DMEM basal medium was replaced with phenol-red free DMEM basal medium and the G418 was omitted.
For NF-κB-mediated luciferase assays, HEK293 NF-κB/luciferase cells were seeded at 1.5×10^4 cells/well in 90 μl phenol-red free DMEM complete medium into Corning 3917 white opaque-bottom tissue culture plates. For Formulae II-2, II-4, II-5A and II-18, a 400 μM starting dilution was made in 100% DMSO and this dilution was used to generate an 8-point half log dilution series. […] For formula II-20, a 2.5 mM or 8 mM starting dilution was made in 100% DMSO and the final test concentrations ranged from 6.3 μM to 2.0 nM or 20 μM to 6.3 nM respectively. The plates were returned to the incubator for 1 hour. After 1 hr pretreatment, 10 μl of a 50 ng/ml TNF-α solution, prepared in the phenol-red free DMEM medium was added, and the plates were incubated for an additional 6 hours.
At the end of the TNF-α stimulation, 100 μl of Steady Lite HTS luciferase reagent (Packard Bioscience) was added to each well and the plates were left undisturbed for 10 min at room temperature before measuring the luciferase activity. The relative luciferase units (RLU) were measured by using a Fusion microplate fluorometer (Packard Bioscience).
NF-κB inducible luciferase activity was measured at 6 hours.

[6] = target: T1, chymotrypsin-like activity of rabbit muscle 20S proteasome (Oryctolagus cuniculus, UniProt G1T4Q9); experiment: In vitro inhibition of 20S proteasome, suc-LLVY-AMC
T1 sequence (G1T4Q9 1-263): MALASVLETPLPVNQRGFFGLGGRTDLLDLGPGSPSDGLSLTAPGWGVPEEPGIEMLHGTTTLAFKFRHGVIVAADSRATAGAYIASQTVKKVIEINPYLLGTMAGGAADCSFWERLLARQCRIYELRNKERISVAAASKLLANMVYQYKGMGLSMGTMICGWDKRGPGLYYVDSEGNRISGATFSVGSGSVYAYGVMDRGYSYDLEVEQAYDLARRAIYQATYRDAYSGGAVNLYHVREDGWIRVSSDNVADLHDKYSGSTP

[7] = test system: NCI-H292; experiment: Cell growth inhibition, resazurin, 48 h; type: cell-based, human; conditions: NCI-H292, 48 h drug exposure
[8] = target: caspase-like (PGPH) activity of rabbit muscle 20S proteasome (Oryctolagus cuniculus, UniProt A0A5F9DQW2); experiment: In vitro inhibition of 20S proteasome, Z-LLE-AMC; conditions: purified rabbit 20S proteasome, Z-LLE-AMC
Chain of caspase-like (PGPH) activity of rabbit muscle 20S proteasome (A0A5F9DQW2 1-212): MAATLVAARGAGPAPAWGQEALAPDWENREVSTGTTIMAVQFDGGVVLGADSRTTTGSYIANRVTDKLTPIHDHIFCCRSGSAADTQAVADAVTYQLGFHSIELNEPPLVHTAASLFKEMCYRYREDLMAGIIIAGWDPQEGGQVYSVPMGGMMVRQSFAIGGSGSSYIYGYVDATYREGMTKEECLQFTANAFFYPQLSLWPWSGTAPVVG

[9] = test system: MDA-MB-231; experiment: Cell growth inhibition, resazurin, 48 h; type: cell-based, human; conditions: MDA-MB-231, 48 h drug exposure
[10] = target: T2, trypsin-like activity of rabbit muscle 20S proteasome (Oryctolagus cuniculus, UniProt G1SWK8); experiment: In vitro inhibition of 20S proteasome, Boc-LRR-AMC; type: biochemical; conditions: for EC50: purified rabbit 20S proteasome, Boc-LRR-AMC; for inhibition of the trypsin-like activity of the 20S proteasome: under the conditions tested
T2 construct: EC50 Trypsin-like; other: purified rabbit 20S proteasome, Boc-LRR-AMC; other: under the conditions tested
T2 sequence (G1SWK8 1-271): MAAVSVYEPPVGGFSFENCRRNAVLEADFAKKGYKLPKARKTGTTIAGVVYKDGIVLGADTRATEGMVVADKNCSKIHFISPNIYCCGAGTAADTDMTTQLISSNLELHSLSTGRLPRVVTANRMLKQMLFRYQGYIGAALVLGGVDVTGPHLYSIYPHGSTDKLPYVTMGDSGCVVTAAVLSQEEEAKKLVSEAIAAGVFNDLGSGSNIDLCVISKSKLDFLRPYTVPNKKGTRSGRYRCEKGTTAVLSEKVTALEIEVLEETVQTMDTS

[11] = test system: MES-SA; experiment: Cell growth inhibition, resazurin, 48 h; conditions: 48 h drug exposure
Method: (§3) Concentrations ranging from 6.32 μM to 2 nM were tested for II-2 and II-4.

[12] = test system: HL-60/MX2; experiment: Cell growth inhibition, resazurin, 48 h; conditions: HL-60/MX2, 48 h drug exposure
Method: (§4) The DNA binding agent Mitoxantrone was included as a control, as HL-60/MX2 cells are reported to be resistant to this chemotherapeutic agent (Harker W. G. et al. 1989).
as §3

[13] = test system: HL-60; experiment: Cell growth inhibition, resazurin, 48 h; conditions: HL-60, 48 h drug exposure
Method: as §4, §3

[14] = test system: RPMI 8226; experiment: Cell growth inhibition, resazurin, 48 h
Method: as §1, §2

[15] = test system: U266; experiment: Cell growth inhibition, resazurin, 48 h; type: cell-based, human; conditions: Homo sapiens, U-266, 48 h, U266, 48 h drug exposure; read-out: EC50
[16] = read-out: EC50 Chymotrypsin-like, purified rabbit 20S proteasome, suc-LLVY-AMC
[17] = read-out: EC50 Caspase-like (PGPH)

| Structure (SMILES) | EC50 ([1]; Mus musculus, B16-F10, 48 h) [nM] | EC50 [2] [nM] | EC50 ([3]; Homo sapiens, OVCAR-3, 48 h) [nM] | EC50 [3] [nM] | EC50 ([4]; Homo sapiens, HT-29, 48 h) [nM] | EC50 ([5]; 1 h pretreatment) [nM] | luciferase activity upon TNF-α stimulation [5] | EC50 [6] [nM] | EC50 [6, 16] [nM] | EC50 ([7]; Homo sapiens, NCI-H292, 48 h) [nM] | EC50 [8, 17] | EC50 ([9]; Homo sapiens, MDA-MB-231, 48 h) [nM] | EC50 [10] [nM] | inhibition of the trypsin-like activity of the 20S proteasome [10] | other results |
| --- | --- | --- | --- | --- | --- | --- | --- | --- | --- | --- | --- | --- | --- | --- | --- |
| C[C@@]12OC(=O)[C@]1([C@@H](O)[C@H]1CCC[C@H]3O[C@@H]13)NC(=O)[C@@H]2CCCl [Formula II-5A] | 78 ± 11 | 109 ± 15 | 80 | 64 | 67 ± 17 | 33 | dose-dependent decrease of luciferase activity | 2 to 11 | 7 | 102 ± 19 | 535 nM and 438 nM | 61 ± 4.6 | 90 | able to inhibit the trypsin-like activity |  |
| C[C@@]12OC(=O)[C@]1([C@@H](O)[C@H]1CCC[C@@H]3O[C@H]13)NC(=O)[C@@H]2CCCl [Formula II-5B] | 1270 | 1790 | 1320 |  |  | 279 | dose-dependent decrease of luciferase activity | 13 to 88 | 85 | 992 |  |  |  | able to inhibit the trypsin-like activity | EC50 [1]: 1140 nM; EC50 [4]: 1210 nM; EC50 [7]: 1250 nM; EC50 ([8]; read-out: EC50 Caspase-like): 3800 nM and 2900 nM; EC50 [9]: 957 nM |
| C[C@@]12OC(=O)[C@]1([C@@H](O)[C@@H]1C=CCCC1)NC(=O)[C@@H]2CCBr [Formula II-18] |  |  |  |  |  |  | dose-dependent decrease of luciferase activity |  |  |  | 286 nM and 213 nM |  |  | able to inhibit the trypsin-like activity | EC50 [11]: 17 nM; EC50 ([11]; Homo sapiens, 48 h): 22 nM; EC50 ([5]; 1 h pretreatment, listed as II-18, read-out: EC50): 11 nM; EC50 ([5]; 1 h pretreatment, read-out: EC50): 11 nM; EC50 ([5]; Homo sapiens, HEK293, 1 h pretreatment, read-out: EC50): 9 nM; EC50 ([8]; read-out: EC50 Caspase-like (PGPH), listed as II-18): 286 nM and 213 nM; EC50 [12]: 18 nM; EC50 ([12]; Homo sapiens, HL60/MX2, 48 h): 19 nM; EC50 [13]: 23 nM; EC50 ([13]; Homo sapiens, HL-60, 48 h): 27 nM; EC50 ([14]; Homo sapiens, RPMI-8226, 48 h, RPMI 8226, 48 h drug exposure): 6.3 nM; EC50 ([14]; Homo sapiens, RPMI-8226, read-out: 1% FBS, EC50, Mean, RPMI 8226, media containing 1% FBS, mean of two): 14 nM; EC50 ([14]; Homo sapiens, RPMI-8226, read-out: 10% FBS, EC50, Mean, RPMI 8226, media containing 10% FBS, mean of two): 20 nM; % cytotoxicity ([14]; human, 48 h): 94, 94%; EC50 [15]: 4.2 nM |
| C[C@@]12OC(=O)[C@]1([C@@H](O)[C@@H]1C=CCCC1)NC(=O)[C@@H]2CCI [Formula II-19] | 13 ± 1.9 | 29 ± 4 | 24 | 20 | 11 ± 1.6 | 10 | dose-dependent decrease of luciferase activity | 2 to 11 |  | 27 ± 3.8 | 739 nM | 14 ± 3.2 | 15 | able to inhibit the trypsin-like activity | EC50 ([5]; 1 h pretreatment, listed as II-19): 10 nM; EC50 ([5]; Homo sapiens, HEK293, 1 h pretreatment): 7 nM; EC50 ([14]; RPMI 8226, 48 h drug exposure): 6 nM and 7 nM |
